Values of other authors in patent publication US10716758B2, “Liposomal statin formulation” (Southwest Research Institute, priority 2018, dated 2020).

Columns and labels:
scar, rabbit ear model = details: relatively low doses (40 μM)
[1] = 20° C. to 25° C.

solubility in water (in words) [1]	SMILES	scar elevation index vs control (scar, rabbit ear model)
–	CC[C@H](C)C(=O)O[C@H]1C[C@@H](C)C=C2C=C[C@H](C)[C@H](CC[C@@H]3C[C@@H](O)CC(=O)O3)[C@H]21 [lovastatin]	reduction in the scar elevation index
soluble in water	CC[C@H](C)C(=O)O[C@H]1C[C@H](O)C=C2C=C[C@H](C)[C@H](CC[C@@H](O)C[C@@H](O)CC(=O)O)[C@H]21 [pravastatin]	–
